Data set [1] has as its target T1, Extracellular calcium-sensing receptor (Homo sapiens) (UniProt P41180).
T1 sequence (whole entry): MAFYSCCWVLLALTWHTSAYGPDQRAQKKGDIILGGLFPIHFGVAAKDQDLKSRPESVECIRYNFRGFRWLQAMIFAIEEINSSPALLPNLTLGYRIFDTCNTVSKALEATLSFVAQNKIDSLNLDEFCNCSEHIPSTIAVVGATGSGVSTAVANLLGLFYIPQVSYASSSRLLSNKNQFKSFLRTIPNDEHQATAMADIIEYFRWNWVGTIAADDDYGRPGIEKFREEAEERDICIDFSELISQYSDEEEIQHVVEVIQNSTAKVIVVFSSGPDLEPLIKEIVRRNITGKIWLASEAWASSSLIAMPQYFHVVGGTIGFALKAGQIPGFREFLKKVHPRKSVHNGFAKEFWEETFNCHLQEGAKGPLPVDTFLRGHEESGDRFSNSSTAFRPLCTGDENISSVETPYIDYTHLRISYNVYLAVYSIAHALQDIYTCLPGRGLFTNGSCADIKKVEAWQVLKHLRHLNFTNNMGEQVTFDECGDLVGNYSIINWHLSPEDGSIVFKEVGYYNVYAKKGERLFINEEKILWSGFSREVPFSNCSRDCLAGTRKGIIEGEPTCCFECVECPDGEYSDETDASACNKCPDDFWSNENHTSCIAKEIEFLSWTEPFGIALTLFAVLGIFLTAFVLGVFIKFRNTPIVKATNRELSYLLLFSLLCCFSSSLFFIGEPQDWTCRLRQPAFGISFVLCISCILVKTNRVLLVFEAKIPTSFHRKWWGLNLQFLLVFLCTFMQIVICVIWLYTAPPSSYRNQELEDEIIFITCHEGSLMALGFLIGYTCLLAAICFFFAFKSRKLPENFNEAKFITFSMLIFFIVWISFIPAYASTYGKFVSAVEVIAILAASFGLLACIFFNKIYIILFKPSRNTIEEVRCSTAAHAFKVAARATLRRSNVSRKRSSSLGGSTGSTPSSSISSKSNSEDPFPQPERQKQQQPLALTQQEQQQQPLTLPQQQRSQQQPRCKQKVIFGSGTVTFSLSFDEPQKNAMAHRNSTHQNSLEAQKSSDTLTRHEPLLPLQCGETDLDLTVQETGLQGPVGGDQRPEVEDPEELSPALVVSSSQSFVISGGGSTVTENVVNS
Kind of data set: Binding affinity to human CaSR expressed in HEK293 cells after 30 mins in presence of NPS 568 by liquid scintillation counting method. In kind it is cell-based.

Data set [2] can be described thus: Intrinsic clearance in human liver microsomes assessed per protein. In kind it is ADME, microsome. To be noted: read-out: CLH. Background: Microsomes from liver hold many membrane-bound enzymes, among them those of drug oxidation.
The nature of data set [3]: Intrinsic clearance in rat liver microsomes assessed per protein. To be noted: read-out: CLH. The data set is classed as ADME, microsome.
A short description of data set [4]: AUC (0 to infinity) in rat at 1 mg/kg, po. Further details: dose 1 mg/kg, route oral, time infinity. The data set is classed as ADME, organism-based. The note with it: in vivo.
A short description of data set [5]: Oral bioavailability in rat at 1 mg/kg. The data set is classed as ADME, organism-based. To be noted: in vivo.
Data set [6] can be described thus: AUC (0 to infinity) in monkey at 1 mg/kg, po. The data set is classed as ADME, organism-based, Macaca mulatta. Details: dose 1 mg/kg, time infinity, route oral. The note with it: rhesus monkey, in vivo.
Data set [7] is described as follows: Oral bioavailability in monkey at 1 mg/kg. In kind it is ADME, organism-based, Macaca mulatta. The note with it: rhesus monkey, in vivo.
Data set [8] in a line: AUC (0 to infinity) in monkey at 0.3 mg/kg, iv. The note with it: rhesus monkey, in vivo. Details: dose 0.3 mg/kg, time infinity, route intravenous. In kind it is ADME, organism-based, Macaca mulatta.
Data set [9] is described as follows: Total clearance in monkey at 0.3 mg/kg, iv. In kind it is ADME, organism-based, Macaca mulatta. The note with it: rhesus monkey, in vivo.
In data set [10] the target is T2, CYP1A2 (Homo sapiens, UniProt P05177).
T2 sequence (P05177 whole entry): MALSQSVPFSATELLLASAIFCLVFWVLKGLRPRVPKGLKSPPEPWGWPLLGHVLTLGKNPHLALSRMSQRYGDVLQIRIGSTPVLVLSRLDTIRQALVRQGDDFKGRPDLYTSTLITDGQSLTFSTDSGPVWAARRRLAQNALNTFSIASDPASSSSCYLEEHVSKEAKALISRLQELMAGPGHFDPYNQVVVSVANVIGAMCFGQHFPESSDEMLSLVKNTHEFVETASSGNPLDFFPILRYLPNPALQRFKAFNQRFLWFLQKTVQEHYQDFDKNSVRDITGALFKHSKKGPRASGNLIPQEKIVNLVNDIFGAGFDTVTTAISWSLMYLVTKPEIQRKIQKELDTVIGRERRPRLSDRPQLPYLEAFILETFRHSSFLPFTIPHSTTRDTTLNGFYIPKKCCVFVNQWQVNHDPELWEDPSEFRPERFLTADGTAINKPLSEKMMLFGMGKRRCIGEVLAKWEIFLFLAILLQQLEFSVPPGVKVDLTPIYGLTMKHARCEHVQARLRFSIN
Kind of data set: Inhibition of CYP1A2 (unknown origin). The data set is classed as ADME.

In data set [11] the target is T3, CYP2B6 (Homo sapiens, UniProt P20813).
T3 sequence (P20813 whole entry): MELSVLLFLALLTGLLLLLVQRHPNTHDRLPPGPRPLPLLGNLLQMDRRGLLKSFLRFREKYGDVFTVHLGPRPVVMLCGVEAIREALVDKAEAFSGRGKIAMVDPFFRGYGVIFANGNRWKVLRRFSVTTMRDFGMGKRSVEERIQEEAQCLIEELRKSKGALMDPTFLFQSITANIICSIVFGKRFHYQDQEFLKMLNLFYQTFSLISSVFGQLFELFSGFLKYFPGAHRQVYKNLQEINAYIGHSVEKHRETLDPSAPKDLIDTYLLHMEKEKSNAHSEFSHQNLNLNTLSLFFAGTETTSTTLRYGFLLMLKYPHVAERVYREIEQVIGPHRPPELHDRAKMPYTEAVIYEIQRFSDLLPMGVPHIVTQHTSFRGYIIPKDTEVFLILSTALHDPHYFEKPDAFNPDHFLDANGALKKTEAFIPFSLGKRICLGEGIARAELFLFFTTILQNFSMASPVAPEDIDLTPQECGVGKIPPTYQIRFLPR
Kind of data set: Inhibition of CYP2B6 (unknown origin). The data set is classed as ADME.

For data set [12], the target named is T4, CYP2C8 (Homo sapiens, UniProt P10632).
T4 sequence (P10632 whole entry): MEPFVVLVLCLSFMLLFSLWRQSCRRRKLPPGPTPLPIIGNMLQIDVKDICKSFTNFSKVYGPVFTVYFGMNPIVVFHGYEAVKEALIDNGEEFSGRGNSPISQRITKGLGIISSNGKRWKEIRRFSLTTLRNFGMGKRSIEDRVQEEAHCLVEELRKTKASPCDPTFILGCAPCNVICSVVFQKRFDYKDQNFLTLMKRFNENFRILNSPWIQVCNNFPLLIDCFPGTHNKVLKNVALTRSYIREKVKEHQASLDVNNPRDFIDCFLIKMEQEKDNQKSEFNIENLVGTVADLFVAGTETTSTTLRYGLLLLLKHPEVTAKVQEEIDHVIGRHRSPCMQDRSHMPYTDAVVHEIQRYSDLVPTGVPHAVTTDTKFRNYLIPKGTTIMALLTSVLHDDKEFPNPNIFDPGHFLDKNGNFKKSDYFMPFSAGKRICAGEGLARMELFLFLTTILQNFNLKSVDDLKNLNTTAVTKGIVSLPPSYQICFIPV
Kind of data set: Inhibition of CYP2C8 (unknown origin). The data set is classed as ADME.

Data set [13] deals with CYP2C19 (Homo sapiens, UniProt P33261). Kind of data set: Inhibition of CYP2C19 (unknown origin). In kind it is ADME.
Data set [14] has as its target CYP2E1 (Homo sapiens, UniProt P05181). Kind of data set: Inhibition of CYP2E1 (unknown origin). The data set is classed as ADME.

Structures are written as SMILES. The source made the active and inactive calls. The rule behind the calls is not given here.

CYP2C19, sequence (P33261 whole entry): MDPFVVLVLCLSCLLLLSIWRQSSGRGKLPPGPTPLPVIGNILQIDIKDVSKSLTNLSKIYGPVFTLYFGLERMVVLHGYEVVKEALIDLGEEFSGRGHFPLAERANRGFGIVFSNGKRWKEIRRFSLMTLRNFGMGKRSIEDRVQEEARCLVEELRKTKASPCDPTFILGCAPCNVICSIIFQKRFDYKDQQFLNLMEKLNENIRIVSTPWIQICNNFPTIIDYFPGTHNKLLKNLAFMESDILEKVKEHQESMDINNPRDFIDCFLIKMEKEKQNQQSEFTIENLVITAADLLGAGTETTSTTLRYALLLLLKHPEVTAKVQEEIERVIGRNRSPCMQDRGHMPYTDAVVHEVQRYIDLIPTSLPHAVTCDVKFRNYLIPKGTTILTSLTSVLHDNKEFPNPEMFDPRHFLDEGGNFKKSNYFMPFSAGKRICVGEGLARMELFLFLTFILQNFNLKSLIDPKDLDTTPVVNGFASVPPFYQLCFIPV
CYP2E1, sequence (P05181 whole entry): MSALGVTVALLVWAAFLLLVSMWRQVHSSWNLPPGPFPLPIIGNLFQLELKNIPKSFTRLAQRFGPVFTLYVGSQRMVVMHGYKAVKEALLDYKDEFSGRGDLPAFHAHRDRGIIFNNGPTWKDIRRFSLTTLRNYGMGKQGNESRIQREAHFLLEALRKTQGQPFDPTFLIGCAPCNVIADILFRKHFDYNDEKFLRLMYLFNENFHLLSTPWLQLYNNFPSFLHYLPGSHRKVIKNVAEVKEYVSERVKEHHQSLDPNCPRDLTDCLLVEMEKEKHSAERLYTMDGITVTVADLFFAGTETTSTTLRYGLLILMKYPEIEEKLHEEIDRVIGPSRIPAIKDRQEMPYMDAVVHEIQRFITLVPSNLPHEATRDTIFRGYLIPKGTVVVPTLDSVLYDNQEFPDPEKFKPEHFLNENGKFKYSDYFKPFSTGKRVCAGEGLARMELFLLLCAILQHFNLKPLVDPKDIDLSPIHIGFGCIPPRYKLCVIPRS

The term AUC(0-inf) denotes total exposure, with the tail of the curve extrapolated. What is called bioavailability is the share of a dose that reaches the circulation, judged against a reference dose that is usually intravenous. For orientation: clearance means a measure of how efficiently the substance is removed, as volume per time. The IC50 is the concentration at which inhibition is half-maximal. Turning to `C[C@@H](N[C@H]1CCN(c2ccc(CC(=O)O)cc2)C1)c1cccc2ccccc12.Cl.Cl`, the outcome in data set [1] was inactive. The microsomal CLint in data set [2] stood at 68 µL/min/mg; in [3], 34 µL/min/mg. The results for the total exposure AUC(0-inf) in data set [4], in data set [6] and in data set [8] were 8.45 µg·h/mL, 1.66 µg·h/mL and 0.987 µg·h/mL, respectively. The values for the bioavailability in data set [5] and in [7] were 84.2% and 55.8%, respectively. In data set [9], this molecule showed a clearance of 0.322 L/h/kg. Also, the 50% inhibitory concentration (IC50) in data set [10], in data set [11], in [12], in data set [13] and in [14] was more than 50 µM throughout.

Values taken from ChEMBL document CHEMBL4118154, “Discovery of evocalcet, a next-generation calcium-sensing receptor agonist for the treatment of hyperparathyroidism” (Bioorg Med Chem Lett, 2018).
